From patent publication US9050294B2, “Treatment of neural diseases or conditions” (Royal Institution for the Advancement of Learning/McGill …, priority 2008, dated 2015)
“Also recorded” adds a separate entry of the source.

Key:
[1] = system: spinal cord injury (SCI) in BALB/c mice; assay: Locomotor recovery after SCI, Basso Mouse Scale (BMS) open-field test; format: in vivo
Experimental: (§1) Fenretinide preparation and treatment.
Locomotor recovery was evaluated in an open-field test using the Basso Mouse Scale (BMS) (Basso et al. (2006) J Neurotrauma 23: 635-659), which was specifically developed for locomotor testing after contusion injuries in mice. The BMS analysis of hindlimb movements and coordination was carried out by two independent trained assessors, and the consensus score taken. The final score is presented as mean±SEM. The BMS is a compressed scale with a maximum score of 9 as compared to the […] BBB scale for rats. Therefore small differences in the BMS can account for larger functional differences.

[2] = system: spinal cord injury (SCI) in BALB/c mice; assay: Oxidative stress markers (MDA, nitrotyrosine) in spinal cord after SCI, ELISA; format: in vivo, mouse; conditions: 3 dpi, vs control mice
Source text: as §1

microglial cells = assay: Cell viability and cell de-attachment studies on microglial cells; format: cell-based, mouse; conditions: 0.625 and 1.25 μM
[3] = system: SOD1^G93A transgenic mice; assay: Glial activation in L4 ventral horn (GFAP and Mac-2 immunohistochemistry); format: in vivo, mouse; conditions: L4, 130 days of age; p≦0.05
Experimental: (B) For ALS studies: Mice were deeply anaesthetized with a cocktail of ketamine (7.5 mg/ml) and xylazine (0.5 mg/ml) administered via intraperitoneal injection at a dose of 20 ml/kg of body weight. Animals were then sacrificed by transcardial perfusion with 4% paraformaldehyde in 0.1M phosphate buffered saline (PBS). The fourth lumbar spinal cord segment, identified by its contribution to the sciatic nerve was carefully removed, post-fixed for 1 hour in 4% paraformaldehyde solution and cryoprotected overnight in 30% sucrose in 0.1M PBS. […] Images were imported into SigmaScan™ Pro Image Measurement Software Version 5.0.0 (SPSS Inc., Chicago, Ill.) and activated astrocytes and microglia were quantified by exceeding an intensity threshold. […] Serial sections from a separate set were stained for Nissle body detection using cresyl violet staining and the number of motor neurons surviving in the ventral horn were quantified.
Immunohistochemistry was also performed on different serial sections from the same animals. […] Images of both ventral horns were captured every 300 μm and imported into SigmaScan™ Pro image quantification software. The area occupied by darkly stained cells was quantified and normalized for the total area.

[4] = system: spinal cord injury (SCI) in BALB/c mice; assay: AA and DHA levels in plasma and spinal cord after spinal cord contusion (lipid analysis, GC/MS); conditions: 5 mg/kg/day oral
Experimental: Adult (8-10 weeks old) female BALB/c mice (Charles River Canada) were anaesthetized with ketamine:xylazine:acepromazine (50:5:1 mg/kg). After performing a laminectomy at the 11th thoracic vertebrae, the exposed spinal cord was contused using the Infinite™ Horizons Impactor device (Precision Scientific Instrumentation, Lexington, Ky.). Moderate injuries were made using a force of 50 kDynes and tissue displacements ranging between 400-600 μm (Ghasemlou et al. (2005) Exp. Neurol. 196: 9-17).
Fenretinide preparation and treatment. Fenretinide powder was resuspended in 95% ethanol under sterile conditions to generate a 2 μg/μL stock solution. This solution was incorporated into a daily liquid diet of Peptamen™ (Nestle Canada, Brampton, ON) at a dose of 5 mg/kg/day for oral consumption as described previously (Guilbault et al. (2008) Am J Respir Cell Mol Biol 38: 47-56). The suspension was protected from light and kept at 4° C. before treatment of the mice. One hour following surgery and for the subsequent three days, fenretinide was administered by gavage in two doses, each suspended in 300 μL of Peptamen™. Gavage was chosen as the method of drug delivery immediately after surgery due to the loss of appetite and reduced food intake during the first 48 h after injury. After day three, mice were fed the fenretinide/Peptamen™ mixture. At this point mice were separated into individual cages in order to ascertain the amount of food and drug consumed. Following day 3, the diet was administered every morning with careful monitoring of the quantity consumed by each mouse. More specifically, the daily fenretinide dose was incorporated into 12 ml of Peptamen™, which represents 80% of the daily mouse food consumption, to ensure 100% consumption. The food was given to the mice in the mid-morning. The diet for control animals was prepared and administered in the same fashion as the drug treatment; however, control animals received Peptamen™ with no fenretinide added but with an equivalent amount of ethanol.
(A) For SCI studies: in order to establish plasma kinetics, blood samples were taken from the saphenous vein at day 0, 1, 3, 7, 11, and 21 post-injury. On day 28, blood samples were obtained by intra-cardiac puncture. All blood samples were mixed with 10 μl of EDTA to prevent coagulation and centrifuged at 350×g for 7 minutes at 4° C. The plasma was then removed and lipids were extracted with chloroform-methanol (2:1 vol/vol) containing 1 mM butylated hydroxyanisole (BHA), as previously described (Folch et al. (1957) J Biol Chem 226: 497-509). The lipid fractions were dried under nitrogen and resuspended in heptane as previously described (De Sanctis (1991) Med Sci Res 19: 335-337). Phospholipids were identified by thin layer chromatography extraction. Diazomethane was used to esterify the released fatty acids and the esters were identified by GC/MS (Hewlett Packard 5880A, WCOT) capillary column (Supelco™-10, 35 m×0.5 mm, 1 μm thick) using commercial standards (Sigma-Aldrich, Oakville, ON, Canada). Total levels of DHA and AA as well as phospholipid-bound DHA, phospholipid-bound AA, malonyldialdehyde (MDA) and nitrotyrosine were assessed in both plasma and spinal cord samples.

In the case of `CC1=C(/C=C/C(C)=C/C=C/C(C)=C/C(=O)Nc2ccc(O)cc2)C(C)(C)CCC1` [fenretinide, all-trans-N-(4-hydroxyphenyl) retinamide], the BMS score ([1]; 5 mg/kg/day oral started 1 h after SCI, 28 dpi, 9-point scale, vehicle 4.6) is reported as 5.8, the “mean BMS subscore higher than vehicle-treated mice” value ([1]; 5 mg/kg/day oral, 28 dpi) is reported as 2.2 points and the “fine locomotor skills (BMS subscores) vs vehicle” value ([1]; 5 mg/kg/day oral, day 7 to 28 after SCI) is reported as “significant improvement”. The “locomotor function (BMS) vs vehicle-treated mice” value ([1]; 5 mg/kg/day oral, significant from day 7 after SCI) was “improved locomotor function; also recorded: significantly enhanced motor skills”, the “decrease of malonyldialdehyde (MDA) level in spinal cord” value [2] was “about 2 fold” and the “decrease of nitrotyrosine level in spinal cord” value [2] was “about 2 fold”. For the same molecule, the “toxic effects on the cells (cell viability, cell de-attachment)” value (microglial cells) was “did not have any toxic effects”, the “GFAP staining of ventral horn: sham-treated mice greater than fenretinide-treated” value [3] was “more than 50%” and the “Mac-2 positive stained area: control animals more than fenretinide-treated” value [3] was 60%. For the same molecule, the “plasma docosahexaenoic acid (DHA) levels vs vehicle-treated mice” value ([4]; started 1 h after SCI, 3 to 28 dpi) was “concomitant increase; also recorded: significantly higher”, the “plasma arachidonic acid (AA) levels vs vehicle-treated mice” value ([4]; started 1 h after SCI, day 1 to 28 after SCI) was “significant reduction” and the “AA level in injured spinal cord vs vehicle” value ([4]; 3 dpi) was “significant decrease”. For the same molecule, the “DHA level in injured spinal cord vs vehicle” value ([4]; 3 dpi) was “increase”.
